≈ marks a conversion by molar mass, not a printed value. Peptide text beside a SMILES is read from it.
Key:
[1] = tested on: Staphylococcus aureus; experiment: Antibacterial activity against Staphylococcus aureus ATCC 25923 assessed as growth inhibition measured after 18 to 24 hrs by CLSI based broth microdilution method; assay type: functional; conditions: time 18-24 hrs
[2] = tested on: Escherichia coli; experiment: Antibacterial activity against Escherichia coli ATCC 25922 assessed as growth inhibition measured after 18 to 24 hrs by CLSI based broth microdilution method; assay type: functional; conditions: time 18-24 hrs
[3] = tested on: Pseudomonas aeruginosa; experiment: Antibacterial activity against Pseudomonas aeruginosa ATCC 27853 assessed as growth inhibition measured after 18 to 24 hrs by CLSI based broth microdilution method; assay type: functional; conditions: time 18-24 hrs
[4] = tested on: Bacillus subtilis; experiment: Antibacterial activity against Bacillus subtilis ATCC 23857 assessed as growth inhibition measured after 18 to 24 hrs by CLSI based broth microdilution method; assay type: functional; conditions: time 18-24 hrs
[5] = tested on: Klebsiella pneumoniae; experiment: Antibacterial activity against Klebsiella pneumoniae ATCC 700603 assessed as growth inhibition measured after 18 to 24 hrs by CLSI based broth microdilution method; assay type: functional; conditions: time 18-24 hrs
[6] = tested on: Erythrocyte; experiment: Hemolytic activity against mouse RBC measured after 1 hrs; assay type: toxicity, cell-based

## CC[C@H](C)[C@H](NC(=O)[C@@H]1CCCN1C(=O)[C@H](CC(C)C)NC(=O)[C@@H](N)CCC(=O)O)C(=O)N[C@H](C(=O)N[C@@H](C)C(=O)N[C@@H](CCCCN)C(=O)N[C@@H](CC(C)C)C(=O)N[C@@H](CC(C)C)C(=O)N[C@@H](CO)C(=O)NCC(=O)N[C@@H](CC(C)C)C(=O)N[C@@H](CC(C)C)C(N)=O)C(C)C (H-ELPIVAKLLSGLL-NH2)
[1]
  MIC: > 128 µM
[2]
  MIC: > 128 µM
[3]
  MIC: > 128 µM
[4]
  MIC: > 128 µM
[5]
  MIC: > 128 µM
[6]
  MHC10: > 256 µM

## CC[C@H](C)[C@H](NC(=O)[C@@H]1CCCN1C(=O)[C@H](CCC(=O)O)NC(=O)[C@@H](N)Cc1ccccc1)C(=O)N[C@H](C(=O)N[C@@H](C)C(=O)N[C@@H](CCCCN)C(=O)N[C@@H](CC(C)C)C(=O)N[C@@H](CC(C)C)C(=O)N[C@@H](CO)C(=O)NCC(=O)N[C@@H](CC(C)C)C(=O)N[C@@H](CC(C)C)C(N)=O)C(C)C (H-FEPIVAKLLSGLL-NH2)
[1]
  MIC: > 128 µM
[2]
  MIC: > 128 µM
[3]
  MIC: > 128 µM
[4]
  MIC: > 128 µM
[5]
  MIC: > 128 µM
[6]
  MHC10: > 256 µM

## CC[C@H](C)[C@H](NC(=O)[C@H](CCC(=O)O)NC(=O)[C@H](CC(C)C)NC(=O)[C@@H](N)Cc1ccccc1)C(=O)N[C@H](C(=O)N[C@@H](C)C(=O)N[C@@H](CCCCN)C(=O)N[C@@H](CC(C)C)C(=O)N[C@@H](CC(C)C)C(=O)N[C@@H](CO)C(=O)NCC(=O)N[C@@H](CC(C)C)C(=O)N[C@@H](CC(C)C)C(N)=O)C(C)C (H-FLEIVAKLLSGLL-NH2)
[1]
  MIC: 16 µM (≈ 22.6 µg/mL)
[2]
  MIC: > 128 µM
[3]
  MIC: > 128 µM
[4]
  MIC: 16 µM (≈ 22.6 µg/mL)
[5]
  MIC: > 128 µM
[6]
  MHC10: 16.06 µM

## CC(C)C[C@H](NC(=O)[C@H](CC(C)C)NC(=O)CNC(=O)[C@H](CO)NC(=O)[C@H](CC(C)C)NC(=O)[C@H](CC(C)C)NC(=O)[C@H](CCCCN)NC(=O)[C@H](C)NC(=O)[C@@H](NC(=O)[C@H](CCC(=O)O)NC(=O)[C@@H]1CCCN1C(=O)[C@H](CC(C)C)NC(=O)[C@@H](N)Cc1ccccc1)C(C)C)C(N)=O (H-FLPEVAKLLSGLL-NH2)
[1]
  MIC: > 128 µM
[2]
  MIC: 64 µM (≈ 89.5 µg/mL)
[3]
  MIC: > 128 µM
[4]
  MIC: > 128 µM
[5]
  MIC: > 128 µM
[6]
  MHC10: > 256 µM

## CC[C@H](C)[C@H](NC(=O)[C@@H]1CCCN1C(=O)[C@H](CC(C)C)NC(=O)[C@@H](N)Cc1ccccc1)C(=O)N[C@@H](CCC(=O)O)C(=O)N[C@@H](C)C(=O)N[C@@H](CCCCN)C(=O)N[C@@H](CC(C)C)C(=O)N[C@@H](CC(C)C)C(=O)N[C@@H](CO)C(=O)NCC(=O)N[C@@H](CC(C)C)C(=O)N[C@@H](CC(C)C)C(N)=O (H-FLPIEAKLLSGLL-NH2)
[1]
  MIC: > 128 µM
[2]
  MIC: > 128 µM
[3]
  MIC: > 128 µM
[4]
  MIC: > 128 µM
[5]
  MIC: > 128 µM
[6]
  MHC10: > 256 µM

## CC[C@H](C)[C@H](NC(=O)[C@@H]1CCCN1C(=O)[C@H](CC(C)C)NC(=O)[C@@H](N)Cc1ccccc1)C(=O)N[C@H](C(=O)N[C@@H](C)C(=O)N[C@@H](CCC(=O)O)C(=O)N[C@@H](CC(C)C)C(=O)N[C@@H](CC(C)C)C(=O)N[C@@H](CO)C(=O)NCC(=O)N[C@@H](CC(C)C)C(=O)N[C@@H](CC(C)C)C(N)=O)C(C)C (H-FLPIVAELLSGLL-NH2)
[1]
  MIC: > 128 µM
[2]
  MIC: > 128 µM
[3]
  MIC: > 128 µM
[4]
  MIC: > 128 µM
[5]
  MIC: > 128 µM
[6]
  MHC10: > 256 µM

## CC[C@H](C)[C@H](NC(=O)[C@@H]1CCCN1C(=O)[C@H](CC(C)C)NC(=O)[C@@H](N)Cc1ccccc1)C(=O)N[C@H](C(=O)N[C@@H](C)C(=O)N[C@@H](CCCCN)C(=O)N[C@@H](CCC(=O)O)C(=O)N[C@@H](CC(C)C)C(=O)N[C@@H](CO)C(=O)NCC(=O)N[C@@H](CC(C)C)C(=O)N[C@@H](CC(C)C)C(N)=O)C(C)C (H-FLPIVAKELSGLL-NH2)
[1]
  MIC: > 128 µM
[2]
  MIC: > 128 µM
[3]
  MIC: > 128 µM
[4]
  MIC: > 128 µM
[5]
  MIC: > 128 µM
[6]
  MHC10: > 256 µM

From ChEMBL document CHEMBL5108051, “Improving the Antimicrobial Performance of Amphiphilic Cationic Antimicrobial Peptides Using Glutamic Acid Full-Scan and Positive Charge Compensation Strategies” (J Med Chem, 2022)
